# Experimental data taken from patent US20110039721A1, “METHOD FOR PREDICTION ABOUT CARCINOGENICITY OF SUBSTANCE IN RODENT” (Chemicals Evaluation and Research Institute, priority 2007, published 2011).
# Assays:
# liver = conditions: classification of the substance (Cr+/Cr−); cited from earlier work
# [1] = system: mRNA expressed from the genes (A) to (D) in rat liver; test: Behavior of genes (mRNA expression level, oligo-DNA microarray) in rat liver after 28-day oral administration; format: in vivo; conditions: mRNA vs vehicle control group
# Method in brief: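 Rat liver RNA after 28 days of daily gavage dosing (male F344, 5 weeks old, four per group). A change reaching 1.5-fold, or 1/1.5, against solvent control scores as significant; opposite direction versus another carcinogen scores as not significant.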
# [2] = classification of the substance (M+/M−); cited from earlier work
# rodent = conditions: classification of the substance (C+/C−); cited from earlier work
# [3] = gene group (A), Unigene No. Rn.167075
# [4] = gene group (C), Unigene No. Rn.120914
smiles,measurement,setting,value
"CC/C(=C(/CC)c1ccc(O)cc1)c1ccc(O)cc1 [TS068, Diethylstilbestrol]",Liver carcinogenicity,liver,Cr−
same,"Behavior of gene caused by administration of chemical substance, Gene No. 4846","[1]; gene group (A), Unigene No. Rn.144554",+
same,"Behavior of gene caused by administration of chemical substance, Gene No. 2026",[1]; [3],−
same,"Behavior of gene caused by administration of chemical substance, Gene No. 4218",[1]; [3],+
same,"Behavior of gene caused by administration of chemical substance, Gene No. 6182","[1]; gene group (A), Unigene No. Rn.5834",+
same,"Behavior of gene caused by administration of chemical substance, Gene No. 5600","[1]; gene group (A), Unigene No. Rn.9836",+
same,"Behavior of gene caused by administration of chemical substance, Gene No. 1494","[1]; gene group (B), Unigene No. Rn.1430",−
same,"Behavior of gene caused by administration of chemical substance, Gene No. 2045","[1]; gene group (B), Unigene No. Rn.19329",−
same,"Behavior of gene caused by administration of chemical substance, Gene No. 2203","[1]; gene group (B), Unigene No. Rn.21240",−
same,"Behavior of gene caused by administration of chemical substance, Gene No. 533","[1]; gene group (C), Unigene No. Rn.106184",+
same,"Behavior of gene caused by administration of chemical substance, Gene No. 725","[1]; gene group (C), Unigene No. Rn.108075",+
same,"Behavior of gene caused by administration of chemical substance, Gene No. 1163","[1]; gene group (C), Unigene No. Rn.11766",+
same,"Behavior of gene caused by administration of chemical substance, Gene No. 4973","[1]; gene group (C), Unigene No. Rn.118529",+
same,"Behavior of gene caused by administration of chemical substance, Gene No. 4095","[1]; gene group (C), Unigene No. Rn.119024",+
same,"Behavior of gene caused by administration of chemical substance, Gene No. 1334",[1]; [4],+
same,"Behavior of gene caused by administration of chemical substance, Gene No. 6620",[1]; [4],+
same,"Behavior of gene caused by administration of chemical substance, Gene No. 6303","[1]; gene group (C), Unigene No. Rn.123063",+
same,"Behavior of gene caused by administration of chemical substance, Gene No. 5878","[1]; gene group (C), Unigene No. Rn.143213",+
same,"Behavior of gene caused by administration of chemical substance, Gene No. 1131","[1]; gene group (C), Unigene No. Rn.144946",+
same,"Behavior of gene caused by administration of chemical substance, Gene No. 1562","[1]; gene group (C), Unigene No. Rn.14744",+
same,"Behavior of gene caused by administration of chemical substance, Gene No. 1741","[1]; gene group (C), Unigene No. Rn.1647",+
same,"Behavior of gene caused by administration of chemical substance, Gene No. 893","[1]; gene group (C), Unigene No. Rn.164817",+
same,"Behavior of gene caused by administration of chemical substance, Gene No. 6026","[1]; gene group (C), Unigene No. Rn.167685",+
same,"Behavior of gene caused by administration of chemical substance, Gene No. 154","[1]; gene group (C), Unigene No. Rn.185941",+
same,"Behavior of gene caused by administration of chemical substance, Gene No. 1993","[1]; gene group (C), Unigene No. Rn.18728",+
same,"Behavior of gene caused by administration of chemical substance, Gene No. 813","[1]; gene group (C), Unigene No. Rn.201760",+
same,"Behavior of gene caused by administration of chemical substance, Gene No. 2494","[1]; gene group (C), Unigene No. Rn.23969",+
same,"Behavior of gene caused by administration of chemical substance, Gene No. 2546","[1]; gene group (C), Unigene No. Rn.24561",+
same,"Behavior of gene caused by administration of chemical substance, Gene No. 3776","[1]; gene group (C), Unigene No. Rn.43232",+
same,"Behavior of gene caused by administration of chemical substance, Gene No. 3929","[1]; gene group (C), Unigene No. Rn.4620",+
same,"Behavior of gene caused by administration of chemical substance, Gene No. 1119","[1]; gene group (C), Unigene No. Rn.9757",+
same,"Behavior of gene caused by administration of chemical substance, Gene No. 6742","[1]; gene group (C), Unigene No. Rn.9779",+
same,"Behavior of gene caused by administration of chemical substance, Gene No. 5634","[1]; gene group (C), Unigene No. Rn.9862",+
same,"Behavior of gene caused by administration of chemical substance, Gene No. 5726","[1]; gene group (D), Unigene No. Rn.9939",−
same,Mutagenicity by Ames test,[2],M−
same,Carcinogenicity,rodent,C+
